Where a name gives a salt, the structure may show the parent alone.
These compounds were tested against T1, human liver glycogen phosphorylase (Homo sapiens, UniProt P06737) (assay: Liver glycogen phosphorylase activity, forward reaction system (NADPH detection at 340 nm)). Details: enzyme inhibitory activity against recombinant human liver glycogen phosphorylase (Sf9 cell lysate), room temperature, 75 minutes.
T1 construct: made in house; host or cells: Sf9 insect cells (suspension of disrupted cells, diluted in BES buffer, not purified)
T1 sequence (P06737 1-847): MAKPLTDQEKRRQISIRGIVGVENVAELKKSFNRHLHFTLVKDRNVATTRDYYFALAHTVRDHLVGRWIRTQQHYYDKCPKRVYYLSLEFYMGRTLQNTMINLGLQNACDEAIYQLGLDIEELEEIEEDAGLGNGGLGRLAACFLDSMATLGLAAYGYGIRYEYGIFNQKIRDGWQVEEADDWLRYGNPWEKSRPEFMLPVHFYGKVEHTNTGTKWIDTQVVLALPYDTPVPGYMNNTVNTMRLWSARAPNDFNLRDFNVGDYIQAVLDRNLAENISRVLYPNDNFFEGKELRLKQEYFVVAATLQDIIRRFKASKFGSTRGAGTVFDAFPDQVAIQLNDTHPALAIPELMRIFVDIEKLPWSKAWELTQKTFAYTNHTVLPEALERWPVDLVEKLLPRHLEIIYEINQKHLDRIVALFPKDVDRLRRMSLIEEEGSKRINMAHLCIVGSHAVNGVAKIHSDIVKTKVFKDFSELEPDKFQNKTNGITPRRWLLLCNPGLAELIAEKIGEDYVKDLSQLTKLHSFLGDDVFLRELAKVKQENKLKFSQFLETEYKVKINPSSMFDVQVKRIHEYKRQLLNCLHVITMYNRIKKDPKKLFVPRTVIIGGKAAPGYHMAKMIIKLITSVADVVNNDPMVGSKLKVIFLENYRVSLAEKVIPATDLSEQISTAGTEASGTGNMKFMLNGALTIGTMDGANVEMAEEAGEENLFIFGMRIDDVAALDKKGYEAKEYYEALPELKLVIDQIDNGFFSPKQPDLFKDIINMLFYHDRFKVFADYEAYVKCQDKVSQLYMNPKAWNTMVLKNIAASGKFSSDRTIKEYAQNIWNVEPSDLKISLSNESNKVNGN
Assay type: biochemical
Procedure, shortened: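 Recombinant human liver glycogen phosphorylase from Sf9 lysate, run in forward direction with glycogen and phosphate substrate plus glucose, coupled via phosphoglucomutase/G6PDH to NADPH formation. BES buffer pH 6.8, room temperature, 75 min; A340 change minus blank gives activity. IC50 from percent inhibition vs DMSO control.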
Work on `CCN(CC)C(=O)COCc1nc(C)c(CNC(=O)c2cc(NC(=O)c3cc(F)c(F)cc3Cl)[nH]n2)o1` [Example 3-8, 5-(2-chloro-4,5-difluoro-benzoylamino)-1H-pyrazole-3-carboxylic acid (2-diethylcarbamoyl methoxymethyl-4-methyl-oxazol-5-ylmethyl)-amide] yielded an IC50 of under 100 nM.
Compound `Cc1nc(COCC(=O)NCc2ccccc2)oc1CNC(=O)c1cc(NC(=O)c2cc(F)c(F)cc2Cl)[nH]n1` [Example 3-9, 5-(2-chloro-4,5-difluoro-benzoylamino)-1H-pyrazole-3-carboxylic acid [2-(benzylcarbamoyl-methoxymethyl)-4-methyl-oxazol-5-ylmethyl]-amide] has an IC50 of under 100 nM.
Compound `Cc1nc(COCC(=O)N2CCOCC2)oc1CNC(=O)c1cc(NC(=O)c2cc(F)c(F)cc2Cl)[nH]n1` [Example 3-10, 5-(2-chloro-4,5-difluoro-benzoylamino)-1H-pyrazole-3-carboxylic acid [4-methyl-2-(2-morpholin-4-yl-2-oxo-ethoxymethyl)-oxazol-5-ylmethyl]-amide] has an IC50 of under 100 nM.
Compound `Cc1ccc(S(=O)(=O)NCc2nc(C)c(CNC(=O)c3cc(NC(=O)c4cc(F)c(F)cc4Cl)[nH]n3)o2)cc1` [Example 3-11, 5-(2-chloro-4,5-difluoro-benzoylamino)-1H-pyrazole-3-carboxylic acid {4-methyl-2-[(toluene-4-sulfonylamino)-methyl]-oxazol-5-ylmethyl}-amide] has an IC50 of under 100 nM.
`CC(=O)NCc1nc(C)c(CNC(=O)c2cc(NC(=O)c3cc(F)c(F)cc3Cl)[nH]n2)o1` [Example 3-12, 5-(2-chloro-4,5-difluoro-benzoylamino)-1H-pyrazole-3-carboxylic acid [2-(acetylamino-methyl)-4-methyl-oxazol-5-ylmethyl]-amide dihydrochloride] was tested, and the IC50 was under 100 nM.
`Cc1nc(CNC(=O)c2ccc(Cl)cc2)oc1CNC(=O)c1cc(NC(=O)c2cc(F)c(F)cc2Cl)[nH]n1` [Example 3-13, 5-(2-chloro-4,5-difluoro-benzoylamino)-1H-pyrazole-3-carboxylic acid {2-[(4-chloro-benzoylamino)-methyl]-4-methyl-oxazol-5-ylmethyl}-amide] gave an IC50 of under 100 nM.
`Cc1nc(C(=O)O)oc1CNC(=O)c1cc(NC(=O)c2cc(F)c(F)cc2Cl)[nH]n1` [Example 3-14, sodium 5-({[5-(2-chloro-4,5-difluoro-benzoylamino)-1H-pyrazole-3-carbonyl]-amino}-methyl)-4-methyl-oxazole-2-carboxylate] showed an IC50 of under 100 nM.
In the case of `Cc1nc(C(=O)N2CCCCC2)oc1CNC(=O)c1cc(NC(=O)c2cc(F)c(F)cc2Cl)[nH]n1` [Example 3-15, 5-(2-chloro-4,5-difluoro-benzoylamino)-1H-pyrazole-3-carboxylic acid [4-methyl-2-(piperidine-1-carbonyl)-oxazol-5-ylmethyl]-amide], the IC50 is reported as under 100 nM.
`Cc1nc(C(=O)NCc2ccccc2)oc1CNC(=O)c1cc(NC(=O)c2cc(F)c(F)cc2Cl)[nH]n1` [Example 3-16, 5-(2-chloro-4,5-difluoro-benzoylamino)-1H-pyrazole-3-carboxylic acid (2-benzylcarbamoyl-4-methyl-oxazol-5-ylmethyl)-amide] was tested, and the IC50 was under 100 nM.
For `Cc1nc(C(=O)OCc2ccccc2)oc1CNC(=O)c1cc(NC(=O)c2cc(F)c(F)cc2Cl)[nH]n1` [Example 3-17, 5-(2-chloro-4,5-difluoro-benzoylamino)-1H-pyrazole-3-carboxylic acid (2-benzyloxycarbonyl-4-methyl-oxazol-5-ylmethyl)-amide], the IC50 was under 100 nM.
`Cc1nc(CNC(=O)c2cc(NC(=O)c3cc(F)c(F)cc3Cl)[nH]n2)oc1C(=O)O` [Example 3-18, 5-(2-chloro-4,5-difluoro-benzoylamino)-1H-pyrazole-3-carboxylic acid (5-carboxy-4-methyl-oxazol-2-ylmethyl)-amide] showed an IC50 of under 100 nM.
Compound `O=C(O)Cc1nnc(CNC(=O)c2cc(NC(=O)c3cc(F)c(F)cc3Cl)[nH]n2)o1` [Example 3-19, 5-(2-chloro-4,5-difluoro-benzoylamino)-1H-pyrazole-3-carboxylic acid (5-carboxymethyl-[1,3,4]oxadiazol-2-ylmethyl)-amide] has an IC50 of 100 to 300 nM.
In the case of `NC(=O)Cc1nnc(CNC(=O)c2cc(NC(=O)c3cc(F)c(F)cc3Cl)[nH]n2)o1` [Example 3-20, 5-(2-chloro-4,5-difluoro-benzoylamino)-1H-pyrazole-3-carboxylic acid (5-carbamoylmethyl-[1,3,4]oxadiazol-2-ylmethyl)-amide], the IC50 is reported as 100 to 300 nM.
`Cc1nc(COC(=O)c2cccs2)c(CNC(=O)c2cc(NC(=O)c3cc(F)c(F)cc3Cl)[nH]n2)o1` [Example 3-22, 5-(2-chloro-4,5-difluoro-benzoylamino)-1H-pyrazole-3-carboxylic acid [2-methyl-4-(thiophene-2-carbonyloxymethyl)-oxazol-5-ylmethyl]-amide] showed an IC50 of under 100 nM.
For `Cc1nc(COC(=O)C2CCCCC2)c(CNC(=O)c2cc(NC(=O)c3cc(F)c(F)cc3Cl)[nH]n2)o1` [Example 3-23, 5-(2-chloro-4,5-difluoro-benzoylamino)-1H-pyrazole-3-carboxylic acid (4-cyclohexanecarbonyloxymethyl-2-methyl-oxazol-5-ylmethyl)-amide], the IC50 was under 100 nM.
`Cc1nc(CO)oc1CNC(=O)c1cc(NC(=O)c2cc(F)c(F)cc2Cl)[nH]n1` [Example 3-24, 5-(2-chloro-4,5-difluoro-benzoylamino)-1H-pyrazole-3-carboxylic acid (2-hydroxymethyl-4-methyl-oxazol-5-ylmethyl)-amide hydrochloride] showed an IC50 of under 100 nM.
For `Cc1nc(C(=O)N(C)Cc2ccccc2)oc1CNC(=O)c1cc(NC(=O)c2cc(F)c(F)cc2Cl)[nH]n1` [Example 3-25, 5-({[5-(2-chloro-4,5-difluoro-benzoylamino)-1H-pyrazole-3-carbonyl]-amino}-methyl)-4-methyl-oxazole-2-carboxylic acid benzyl-methyl-amide], the IC50 was under 100 nM.

Source: patent publication US20090036450A1, “PYRAZOLE COMPOUNDS AND USE THEREOF” (JAPAN TOBACCO, INC., priority 2006, published 2009)
